Data reported in PubChem BioAssay (NCI).
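Five concentrations, 48 hours, 96-well plates. The concentration for 50% growth inhibition is given as GI50. At the TGI there is no net growth.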

Tests used:
Assay in all cases: NCI anticancer screen, dose series, 48 h
UO-31 renal = system: UO-31 renal
BT-549 breast = system: BT-549 breast
UACC-62 melanoma = system: UACC-62 melanoma
IGROV1 ovarian = system: IGROV1 ovarian
MDA-MB-231 breast = system: MDA-MB-231 breast
NCI-H226 lung = system: NCI-H226 lung
SK-MEL-5 melanoma = system: SK-MEL-5 melanoma
SF-268 CNS = system: SF-268 CNS
KM12 colon = system: KM12 colon
CCRF-CEM leukemia = system: CCRF-CEM leukemia

Structure (SMILES) | GI50 (UO-31 renal) [µM] | TGI (UO-31 renal) [µM] | GI50 (BT-549 breast) [µM] | TGI (BT-549 breast) [µM] | GI50 (UACC-62 melanoma) [µM] | TGI (UACC-62 melanoma) [µM] | GI50 (IGROV1 ovarian) [µM] | TGI (IGROV1 ovarian) [µM] | GI50 (MDA-MB-231 breast) [µM] | TGI (MDA-MB-231 breast) [µM] | GI50 (NCI-H226 lung) [µM] | TGI (NCI-H226 lung) [µM] | GI50 (SK-MEL-5 melanoma) [µM] | TGI (SK-MEL-5 melanoma) [µM] | GI50 (SF-268 CNS) [µM] | TGI (SF-268 CNS) [µM] | GI50 (KM12 colon) [µM] | TGI (KM12 colon) [µM] | GI50 (CCRF-CEM leukemia) [µM] | TGI (CCRF-CEM leukemia) [µM]
Fc1ccc(-c2ncn(C3CCNCC3)c2-c2ccnc(Oc3ccc4c(c3)OCO4)n2)cc1 | 7.81 | > 25 | > 21.3 | > 25 | > 15.7 | > 25 | 13.9 | > 25 | 10.5 | > 25 | > 17 | > 25 | 3.77 | 8.4 | 24.4 | > 25 | > 25 | > 25 | > 25 | > 25
O=S(=O)(O)O |  | 1770 |  | 2680 |  | 1940 |  | 2170 |  | > 1900 |  | 2390 |  | 2200 |  | 1980 |  | 2150 |  | 684
CCC(=O)N1C/C(=C/c2ccc(Cl)cc2)C(=O)/C(=C/c2ccc(Cl)cc2)C1 | 1.15 | 2.5 | 0.462 | 1.52 | 0.728 | 1.94 | 0.998 | 2.55 | 1.05 | 2.9 | 1.15 | 3.5 | 1.46 | 2.81 | 1.17 | 3.16 | 0.25 | 0.665 | 0.422 | > 22.3
OCCCCC#Cc1ccccc1C#Cc1ccc(O)cc1 | 13.2 | 26.7 | 14.1 | 28.8 | 15.7 | 29.6 | 9.56 | 22.8 | 7.55 | 21.4 | 18.3 | 39.1 | 17.7 | 32.2 | 16 | 41.7 | 14.5 | 30.9 | 7.35 | 26.1
COc1ccc(/C=C(/c2ccccc2)[N+](=O)[O-])c(OC)c1 | 1.23 | 2.47 | 1.48 | 2.89 | 1.22 | 2.7 | 1.47 | 2.95 | 2 | 4.16 | 1.95 | 4.49 | 1.79 | 3.26 | 1.65 | 3.14 | 1.72 | 3.31 | 0.46 | 4.76
COc1ccccc1/C=C1\COc2ccc(-c3ccccc3)cc2C1=O | 8.93 | 37.3 | 1.55 | 4.89 | 4.39 | 45.2 | 4.69 | > 100 | 3.66 | 17.7 | 4.02 | 17.7 | 2.19 | 7.61 | 3.14 | 10.4 | 1.93 | 5.55 | 2.08 | 15.2
C=C1C(=O)O[C@H]2[C@H]1CC/C(COC(=O)CCCCCC(=O)OC/C1=C/CC[C@@]3(C)O[C@H]3[C@H]3OC(=O)C(=C)[C@@H]3CC1)=C\CC[C@@]1(C)O[C@@H]21 | 1.25 | 2.86 | 1.44 | 3.02 | 2.02 | 4.92 | 2.51 | 9.32 | 1.68 | 3.62 | 2.02 | 5.53 | 1.91 | 4.37 | 3.44 | 14.8 | 2.17 | 5.4 | 0.393 | 3.86
CCCCNNC(=O)c1ccc(Br)cc1 | 2.36 | > 35.1 | 17 | > 50 | 1.3 | 7.51 | 8.35 | > 50 | 9.03 | > 50 | 9.86 | > 50 | 1.94 | 7.77 | 8.41 | > 50 | 7.26 | > 50 | 2.46 | > 50
N#Cc1nc(-c2ccc(F)cc2)oc1S(=O)(=O)N1CCCCC1 | 1.58 | 2.93 | 2.24 | 5.74 | 1.62 | 3.01 | 1.75 | 3.5 | 1.86 | 3.54 | 19.1 | 42.1 | 1.81 | 3.36 | 2.23 | 6.23 | 5.23 | 19.3 | 0.954 | > 100
O=C(Oc1cccc(Cl)c1)c1ccccc1Nc1ccnc(C(F)(F)F)c1 | 23.5 | > 100 | 6.77 | 27.6 | 2.02 | 6.71 | 15.2 | > 100 | 1.69 | 4.7 | 2.15 | 8.89 | 2.59 | 6.73 | 3.03 | 10.8 | 9.53 | 41.4 | 0.898 | 91.6
COc1ccc([C@H](CC(=O)O)N2CCN(CCCc3ccc4c(n3)NCCC4)C2=O)cn1 | > 36.7 | > 100 | 0.153 | 0.296 | > 100 | > 100 | > 38.1 | > 100 | 0.254 |  | 0.417 |  | 0.0501 | 0.173 | 0.754 | > 100 | > 100 | > 100 | > 100 | > 100
CN(C)C(=O)Nc1nc2cc(Cl)c(Cl)cc2[nH]1 | 5.53 | > 100 | 2.79 | > 100 | 0.382 | > 100 | 1.15 | > 100 | 3.42 | > 100 | 2.83 | > 100 | 0.441 | > 100 | 2.89 | > 100 | 0.404 | > 35.7 | 0.953 | > 100
C/C(=C\c1ccn(-c2ccccc2N)n1)[C@@H]1C[C@@H]2O[C@]2(C)CCC[C@H](C)[C@H](O)[C@@H](C)C(=O)C(C)(C)[C@@H](O)CC(=O)O1 | 0.302 | > 50 | 0.116 | > 13.1 | 0.111 | > 50 | 0.247 | > 50 | 0.247 | > 50 | 7.14 | > 50 | 0.0286 | > 50 | 0.111 | > 50 | 0.0203 | > 50 | 0.0343 | > 50
O=c1c2c([nH]c3nccn13)CCC2 |  | > 10 |  | > 10 |  | > 10 |  | > 10 |  | > 10 |  | > 10 |  | > 10 |  | > 10 |  | > 10 |  | > 10
O=[N+]([O-])c1cccc(/C=N/NC2=CS(=O)(=O)C=C2)c1 |  | > 100 |  | > 100 |  | > 100 |  | > 100 |  | > 100 |  | > 100 |  | > 100 |  | > 100 |  | > 100 |  | > 100
CN(C)c1ccc(Nc2c3ccccc3nc3ccccc23)cc1 | 0.359 | 1.87 | 1.71 | 8.19 | 1.19 | 2.98 | 0.59 | 2.91 | 1.3 | 3.32 | 1.04 | 2.68 | 1.03 | 2.2 | 1.52 | 7.83 | 1.32 | 4.54 | 1.23 | 15.7
COC(=O)c1cc(-c2ccccc2)[nH]c1N/N=C/c1c(Cl)cccc1Cl | 0.609 | > 56.3 | 0.466 | 6.69 | 0.278 | 9 | 0.412 |  | 0.474 | 6.85 | 0.369 |  | 0.335 | 1.89 | 0.436 | 8.25 | 0.274 | 1.57 | 0.348 | 93
Nc1ccn(C2CC(F)C(CO)O2)c(=O)n1 (centres undefined) | > 100 | > 100 | > 100 | > 100 | > 100 | > 100 | > 100 | > 100 | > 100 | > 100 | > 100 | > 100 | > 100 | > 100 | > 100 | > 100 | > 100 | > 100 | > 100 | > 100
c1ccc(-c2nn3c(c2-c2ccnc4cc(OCCN5CCOCC5)ccc24)CCC3)nc1 | 10.8 | > 100 | > 79.9 | > 100 | > 100 | > 100 | 29.6 | > 100 | > 100 | > 100 | > 81.2 | > 100 | 43.9 | > 100 | > 77.1 | > 100 | 59.4 | > 100 | > 95.9 | > 100
COc1cc2c3c(n(CCCN)c(=O)c2cc1OC)-c1ccc([N+](=O)[O-])cc1C3=O | 0.222 | 6.22 | 13.4 | 28 | 11.5 | 25.1 |  |  | 18.9 | 34.6 | 17.4 | 38.3 | 5.23 | 19.5 | 7.74 | 24.4 | 14.6 | 31 | 0.15 | 2.73
